T1: biotinylated recombinant human BCMA (Acro Biosystems Cat: #BC7-H82F0) (human, UniProt Q02223 1-54, biotinylated)
T1 construct: Bought reagent
T1 sequence (looked up): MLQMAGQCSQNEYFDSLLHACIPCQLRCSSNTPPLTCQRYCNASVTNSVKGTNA

T2: mouse BCMA (mouse, UniProt O88472 1-49, limits assumed)
T2 construct: also called murine BCMA
T2 chain (looked up): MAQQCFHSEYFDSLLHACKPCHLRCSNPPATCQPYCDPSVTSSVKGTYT


Columns and labels:
NK cells [1] = assay: Cytokine secretion in co-culture of NK cells with K562 cells with Lenalidomide; assay type: cell-based, human
Procedure: (§1) Additionally, cytokine secretion was tested at the end of the co-culture described above, following co-culture of NK cells with B2M^neg T cells, K562 cells (a B2M^neg cell line, commonly used as a positive control for activation of NK cells due to lack of B2M expression), and unedited T cells (used as a negative control for NK cells activation).

PBMCs = assay: MLR assay (mixed lymphocyte reaction) with Lenalidomide; assay type: cell-based, human
Procedure: Next, allo-reactivity towards edited T cells (B2M^neg/TCR^neg) was tested using an MLR assay (mixed lymphocyte reaction). In this assay PBMCs (“responder cells”) were mixed with irradiated auto or allo T cells (“stimulator cells”). At the end of the assay, the activation of the responder cells was evaluated by measuring the cell proliferation in the co-culture, with cell proliferation serving as a proxy for immune activation. In the assay shown in FIG. 19C, both auto (donor 1) & allo (donor 2 & 3) were evaluated for immune activation following co-culture. […] As expected, immune activation was reduced upon deletion of B2M & TRAC from the T cells, as evident by the reduced proliferation in both donors tested.

[2] = lenalidomide-treated subjects; prescribing information; cited from earlier work
NK cells [3] = assay: NK cytotoxicity towards B2Mneg T cells with Lenalidomide; assay type: cell-based, human; details: overnight co-culture; wide range of Lenalidomide concentrations
Procedure: Two modes of allogenic immune recognition were tested: immune recognition of B2M^neg cells by NK cells, and immune recognition by allogenic T cells. Examination of the cytotoxic activity of NK cells towards B2M^neg cells was tested following overnight (ON) co-culture in varying concentrations of NK to T cells, and varying concentrations of Lenalidomide. Increasing concentration of NK to B2M^neg T cells led to an increase in the cytotoxic activity of NK cells towards B2M^neg T cells.

NK cells [4] = assay: Cytokine secretion in co-culture of NK cells with B2Mneg T cells with Lenalidomide; assay type: cell-based, human
Procedure: as §1

MM.1S tumors = assay: Lenalidomide plus anti-BCMA CAR-T cells in MM.1S subcutaneous tumor model; details: single arm: 3 million CAR-T cells, or Lenalidomide 1.5 or 10 mg/kg
anti-BCMA CAR-T cells [5] = assay: Cytokine secretion of CAR-T cells produced in the presence of Lenalidomide, co-culture with JeKo-1; assay type: cell-based, human; details: Lenalidomide 0.5, 2 & 10 uM during ~10 day production; JeKo-1 at 0.5:1 effector to target, no Lenalidomide in assay
Procedure: PBMCs were thawed and activated by T cell activation agents to enrich for T cells. After 3 days, T cells were edited for B2M and TRAC knock-out using a CRISPR/Cas gene editing system. An anti-BCMA expression cassette (as an exemplary CAR construct) was knocked into the TRAC locus to produce anti-BCMA CAR-T cells. Following the editing procedure, resulting T cells were expanded in the presence of absence of Lenalidomide in a concentration of 0.5, 2, & 10 uM for approximately 10 days. The resulting cells were later evaluated for cytokine secretion following antigen stimulation, in the absence of Lenalidomide.
The inclusion of Lenalidomide […] led to enhanced cytokine secretion of multiple effector cytokines, among them IFN-γ and TNF-α, upon CAR-T engagement by the BCMA expressing target cell line (FIG. 20).

anti-BCMA CAR-T cells [6] = assay: Impact of Lenalidomide on editing efficiency and CD4/CD8 ratio of CAR-T cells; assay type: cell-based, human; details: day 8
Procedure: Editing efficiency, including TRAC−%, B2M−% and CAR+% were assessed at day 7/8 and/or day 13/14 with anti-BCMA CAR-T cells. […] Anti-BCMA CAR-T cells were not harvested around day 14 due to slower growth rate. About 51-58% of CAR+%, 96% TRAC−% and 75-77% of B2M−% were detected from anti-BCMA CAR-T cells with or without Lenalidomide treatment.
CD4% and CD8% were assessed at day 7/8 and/or day 13/14 with the anti-BCMA CAR-T cells disclosed above. […] The anti-BCMA CAR-T cells were not assessed and harvested around day 14 due to slower expansion. Compared with Lenalidomide untreated anti-BCMA CAR-T cells, there was dose-dependent increase of CD8 positive cells, ranging from 7-15%. […] Expansion scale (small or medium) didn't impact the CD4 and CD8 phonotype.

anti-BCMA CAR-T cells [7] = assay: Lenalidomide on cytokine secretion of anti-BCMA CAR-T cells co-cultured with JeKo-1; assay type: cell-based, human; details: overnight culture with JeKo-1, 2:1 effector to target; all concentrations tested
Source text: Addition of Lenalidomide to the co-culture media led to enhanced cytokine secretion of multiple effector cytokines, among them IFN-γ and TNF-α following CAR-T cell engagement by the BCMA expressing target cell line (FIG. 1C).

anti-BCMA CAR-T cells [8] = assay: Lenalidomide on in vitro expansion and senescence (CD57) of anti-BCMA CAR-T cells
[9] = molecular target: T1, biotinylated recombinant human BCMA …; assay: flow cytometry of CTX120 cells, detection of the surface CAR with biotinylated BCMA and fluorescent streptavidin
mouse BCMA = molecular target: T2, mouse BCMA; assay: not described (statement in Example 5)

Molecule	cytokine secretion (NK cells [1])	proliferation upon allo co-culture with edited T cells (PBMCs; edited (B2Mneg/TCRneg) stimulator T cells)	allo reactivity towards unedited T cells (PBMCs; unedited stimulator T cells, donor 2)	grade 3 or 4 neutropenia [2]	grade 3 or 4 thrombocytopenia [2]	NK cell killing of B2Mneg T cells (NK cells [3])	cytokine secretion (NK cells [4])	effect on tumor regression and mouse survival compared to no treatment arm (MM.1S tumors)	effector cytokine secretion upon antigen stimulation (anti-BCMA CAR-T cells [5])	overall distribution of CD4 and CD8 cells (anti-BCMA CAR-T cells [6])	dose-dependent increase of CD8 positive cells (anti-BCMA CAR-T cells [6]; compared with Lenalidomide untreated cells)	effector cytokine secretion upon antigen stimulation (anti-BCMA CAR-T cells [7])	higher expansion of anti-BCMA CAR-T cells (anti-BCMA CAR-T cells [8]; 0.5 uM to 10 uM Lenalidomide)	senescence marker CD57 expression (anti-BCMA CAR-T cells [8]; all tested concentrations, 10 day culture)	binding result [9]	binding result (mouse BCMA)
Nc1cccc2c1CN(C1CCC(=O)NC1=O)C2=O (stereo not shown) [Lenalidomide]	Upregulation of secretion of several cytokines	minimal changes upon addition of Lenalidomide to the co-culture	may in some cases enhance allo reactivity towards unedited T cells	up to 59%	up to 38%	did not lead to an increased cell killing of the B2M^neg T cells	minimal changes were observed upon addition of Lenalidomide	minimal effect on both tumor regression and mouse survival	enhance effector cytokine secretion upon antigen stimulation	not significantly altered	7-15%	enhanced effector cytokine secretion upon antigen stimulation	5-30 fold	reduced expression of CD57		
anti-BCMA CAR (CTX-166b) expressed on CTX120 cells (other, also called CTX120 anti-BCMA CAR; CTX120 CAR) QVQLVQSGAELKKPGASVKVSCKASGNTLTNYVIHWVRQAPGQRLEWMGYILPYNDLTKYSQKFQGRVTITRDKSASTAYMELSSLRSEDTAVYYCTRWDWDGFFDPWGQGTTVTVSSGGGGSGGGGSGGGGSEIVMTQSPATLSVSPGERASISCRASQSLVHSNGNTHLHWYQQRPGQAPRLLIYSVSNRFSEVPARFSGSGSGTDFTLTISSVESEDFAVYYCSQTSHIPYTFGGGTKLEIKSAAAFVPVFLPAKPTTTPAPRPPTPAPTIASQPLSLRPEACRPAAGGAVHTRGLDFACDIYIWAPLAGTCGVLLLSLVITLYCNHRNRKRGRKKLLYIFKQPFMRPVQTTQEEDGCSCRFPEEEEGGCELRVKFSRSADAPAYQQGQNQLYNELNLGRREEYDVLDKRRGRDPEMGGKPRRKNPQEGLYNELQKDKMAEAYSEIGMKGERRRGKGHDGLYQGLSTATKDTYDALHMQALPPR															binds	no binding

— patent US20220202859A1, “CANCER TREATMENT USING CD38 INHIBITOR AND/OR LENALIDOMIDE AND T-CELLS EXPRESSING A CHIMERIC ANTIGEN RECEPTOR” (CRISPR THERAPEUTICS AG, priority 2020, published 2022)
